Marks after values point to notes of the source that are not given here.
Experiment: Determination of bio-accumulation: urinary clearance pharmacokinetic study in rats, with observation for toxicity and gross necropsy
Format: in vivo, male Sprague Dawley rats
Settings: rat, oral gavage
Protocol: The perfluorinated and partially fluorinated carboxylates were evaluated for urinary clearance using a pharmacokinetic study in rats. The goal was to measure the total amount of parent compound eliminated via urinary output and estimate the rate of elimination. The study was approved by the IACUC (Institutional Animal Care and Use Committees) and was performed in 3M Company's AAALAC (Association for Assessment and Accreditation of Laboratory Animal Care)-accredited facility.
The study utilized male Sprague Dawley rats, 6 to 8 weeks of age, and approximately 200 to 250 g body weight at study onset. The test compounds of table 2 were administered at a dose of 73 micro Moles per kg body weight in rats (N=3 animals per tested compound). All test compounds were prepared in sterile deionized water and given to rats via oral gavage. After test compounds administration, the rats were housed individually in metabolism cages for urine collection: 0 to 6 hours, 6 to 24 hours, 24 to 48 hours and […]. Animals were observed throughout the study for clinical signs of toxicity. Gross necropsy was performed at the termination of each study (96 hours post-dose) with sera and liver samples being retained from each animal.
The concentration of the parent compound or metabolites thereof were quantitatively measured via fluorine NMR on each urine sample for each animal at each time point based on internally added standards.

[1] = 73 micro Moles per kg, no parent compound observed in the urine

Structure (SMILES)	T½ (73 micro Moles per kg body weight, parent compound in urine by fluorine NMR, exponential least squares curve fitting) [h]	% Recovery (96 h), based on elimination of the major metabolite C3F7—O—CHFCOO− [1]	T½ (h), based on elimination of the major metabolite C3F7—O—CHFCOO− [1]
N.O=C(O)C(F)(F)OC(F)(F)C(F)(F)C(F)(F)OC(F)(F)F [Compound 1, CF3—O—(CF2)3—O—CF2—COONH4]	10		
N.O=C(O)COC(F)(F)C(F)OC(F)(F)C(F)(F)C(F)(F)F (stereo not drawn) [Compound 16, C3F7—O—CFH—CF2—O—CH2—COONH4]		65* %	13* h
